Assay [1] concerns C57BL/6J mice (mild hyperglycemic). Briefly: In vivo glucose reduction, acute single dose 120-min time-course, oral route. Details: species or system mouse; unit not given here. Conditions: male C57BL/6J mice. As to the method:
Acute single dose 120-min time-course experiments were carried out in male C57BL/6J or db/db mice, age 8-12 weeks, bred in-house. Animals were housed in groups of 6 animals per cage, for a week, in order to habituate them to vivarium conditions (25±4° C., 60-65% relative humidity, 12:12 h light:dark cycle, with lights on at 7.30 am). All the animal experiments were carried out according to the internationally valid guidelines following approval by the ‘Zydus Research Center animal ethical committee’.
Two days prior to the study, the animals were randomised and divided into 5 groups (n=6), based upon their fed glucose levels. On the day of experiment, food was withdrawn from all the cages, water was given ad-libitum and were kept for overnight fasting. Vehicle (normal saline)/test/standard compounds were administered intraperitoneally (i.p.) or orally, on a body weight basis. Soon after the 0 min. blood collection from each animal, the subsequent blood collections were done at 30, 60 and 120 or up to 240 min., via retro-orbital route, under light ether anesthesia (Chen, D., et al., Diabetes Obesity Metabolism, 2005, 7, 307. Kim, J. G. et al., Diabetes, 2003, 52, 751).
(§1) Blood samples were centrifuged and the separated serum was immediately subjected for the glucose estimation. Serum for insulin estimation was stored at −70° C. until used for the insulin estimation. The glucose estimation was carried out with DPEC-GOD/POD method (Ranbaxy Fine Chemicals Limited, Diagnostic division, India), using Spectramax-190, in 96-microwell plate reader (Molecular devices Corporation, Sunnyvale, Calif.). […] The AUC and BCAUC obtained from graphs were analyzed for one way ANOVA, followed by Dunnett's post test, using Graph Pad prism software. Furthermore, the insulin estimation was carried out using rat/mouse insulin ELISA kit (Linco research, Missouri USA). Changes in the blood glucose levels, at 0, 30, 60 and 120 min, with selected peptidomimetics are shown in Table 7 (via ip route of administration) and Table 8 (via oral route of administration) respectively.

For assay [2] the test system is unchanged. Kind of assay: In vivo glucose reduction, acute single dose 120-min time-course, i.p. route. Details: species or system mouse; unit not given here. Conditions: male C57BL/6J mice. As for the experimental part:
All the animal experiments were carried out according to the internationally valid guidelines following approval by the ‘Zydus Research Center animal ethical committee’.
Two days prior to the study, the animals were randomised and divided into 5 groups (n=6), based upon their fed glucose levels. On the day of experiment, food was withdrawn from all the cages, water was given ad-libitum and were kept for overnight fasting. Vehicle (normal saline)/test/standard compounds were administered intraperitoneally (i.p.) or orally, on a body weight basis.
as §1, with “USA).” for “USA). Changes in the blood glucose levels, at 0, 30, 60 and 120 min, with selected peptidomimetics are shown in Table 7 (via ip route of administration) and Table 8 (via oral route of administration) respectively.”

As for `CCc1cc(OC)ccc1-c1ccc(CC(NC(=O)[C@H](CC(=O)O)NC(=O)[C@H](CO)NC(=O)[C@@H](NC(=O)C(C)(Cc2ccccc2F)NC(=O)[C@@H](NC(=O)CNC(=O)C(CCC#N)NC(=O)C(C)(C)NC(=O)[C@@H](N)Cc2c[nH]cn2)[C@H](C)O)[C@H](C)O)C(=O)NC(CCCc2ccccc2F)C(N)=O)cc1` (single isomer, unassigned) [Seq. ID. 116], the blood glucose levels is 185 ± 2.1 in assay [1] (2 μM/kg oral, 0 min); 115 ± 2.8 in assay [1] (2 μM/kg oral, 30 min); 112 ± 4.9 in assay [1] (2 μM/kg oral, 60 min); 111 ± 2.2 in assay [1] (2 μM/kg oral, 120 min); 184 ± 5.0 in assay [2] (50 nM/kg i.p., 0 min); 122 ± 3.8 in assay [2] (50 nM/kg i.p., 30 min). Further, the blood glucose levels was determined as 128 ± 2.1 in assay [2] (50 nM/kg i.p., 60 min) and 149 ± 2.3 in assay [2] (50 nM/kg i.p., 120 min).
As to `CCc1cc(OC)ccc1-c1ccc(CC(C(=O)N(C)C(CCCc2ccccc2)C(N)=O)N(C)C(=O)[C@H](CC(=O)O)NC(=O)[C@H](CO)NC(=O)[C@@H](NC(=O)C(C)(Cc2ccccc2F)NC(=O)[C@@H](NC(=O)CNC(=O)C(CCC#N)NC(=O)C(C)(C)NC(=O)[C@@H](N)Cc2c[nH]cn2)[C@H](C)O)[C@H](C)O)cc1` (single isomer, unassigned) [Seq. ID. 142], the blood glucose levels in assay [1] (2 μM/kg oral, 0 min) is reported as 185 ± 2.3; in assay [1] (2 μM/kg oral, 30 min), 115 ± 3.8; in assay [1] (2 μM/kg oral, 60 min) it was 113 ± 4.9; in assay [1] (2 μM/kg oral, 120 min), 109 ± 2.2; in assay [2] (30 nM/kg i.p., 0 min) it was 183 ± 4.9; in assay [2] (30 nM/kg i.p., 30 min) it was 117 ± 2.5. For the same compound, the blood glucose levels was determined as 116 ± 2.3 in assay [2] (30 nM/kg i.p., 60 min) and 119 ± 2.0 in assay [2] (30 nM/kg i.p., 120 min).
Regarding `CCc1cc(OC)ccc1-c1ccc(CC(NC(=O)[C@H](CC(=O)O)NC(=O)[C@H](CO)NC(=O)[C@@H](NC(=O)C(C)(Cc2ccccc2F)NC(=O)[C@@H](NC(=O)CNC(=O)C(CCC#N)NC(=O)C(C)(C)NC(=O)[C@H](Cc2c[nH]cn2)NC(C)=O)[C@@H](C)O)[C@@H](C)O)C(=O)NC(CCCc2ccccc2F)C(N)=O)cc1` (single isomer, unassigned) [Seq. ID. 207], the blood glucose levels in assay [1] (2 μM/kg oral, 0 min) came to 183 ± 2.4; in assay [1] (2 μM/kg oral, 30 min), 116 ± 3.1; in assay [1] (2 μM/kg oral, 60 min), 112 ± 4.8; in assay [1] (2 μM/kg oral, 120 min), 110 ± 2.5; in assay [2] (50 nM/kg i.p., 0 min), 184 ± 5.0; in assay [2] (50 nM/kg i.p., 30 min), 122 ± 3.8. In addition, the blood glucose levels is recorded as 128 ± 2.1 in assay [2] (50 nM/kg i.p., 60 min) and 149 ± 2.3 in assay [2] (50 nM/kg i.p., 120 min).
Take `CCc1cc(OC)ccc1-c1ccc(CC(NC(=S)[C@H](CC(=O)O)NC(=O)[C@H](CO)NC(=O)[C@@H](NC(=O)C(C)(Cc2ccccc2F)NC(=O)[C@@H](NC(=O)CNC(=O)C(CCC#N)NC(=O)C(C)(C)NC(=O)[C@@H](N)Cc2c[nH]cn2)[C@H](C)O)[C@H](C)O)C(=S)NC(CCCc2ccccc2F)C(N)=O)cc1` (single isomer, unassigned) [Seq. ID. 180]: the blood glucose levels is 184 ± 2.2 in assay [1] (2 μM/kg oral, 0 min); 118 ± 3.3 in assay [1] (2 μM/kg oral, 30 min); 112 ± 4.4 in assay [1] (2 μM/kg oral, 60 min); 110 ± 2.9 in assay [1] (2 μM/kg oral, 120 min); 180 ± 3.1 in assay [2] (20 nM/kg i.p., 0 min); 122 ± 3.9 in assay [2] (20 nM/kg i.p., 30 min). Also, the blood glucose levels in assay [2] (20 nM/kg i.p., 60 min) turned out to be 129 ± 2.2; in assay [2] (20 nM/kg i.p., 120 min) it was 140 ± 2.9.
Consider `CCc1cc(OC)ccc1-c1ccc(CC(NC(=O)[C@H](CC(=O)O)NC(=O)[C@H](CO)NC(=O)[C@@H](NC(=O)C(C)(Cc2ccccc2F)NC(=O)[C@@H](NC(=O)CNC(=O)C(CCC#N)NC(=O)C(C)(C)NC(=O)[C@@H](N)Cc2c[nH]cn2)[C@H](C)O)[C@H](C)O)C(=S)NC(CCCc2ccccc2F)C(N)=O)cc1` (single isomer, unassigned) [Seq. ID. 168], for which the blood glucose levels in assay [1] (1.5 μM/kg oral, 0 min) is recorded as 183 ± 2.0; in assay [1] (1.5 μM/kg oral, 30 min), 117 ± 1.1; in assay [1] (1.5 μM/kg oral, 60 min), 112 ± 1.1; in assay [1] (1.5 μM/kg oral, 120 min) it was 110 ± 1.8; in assay [2] (20 nM/kg i.p., 0 min), 182 ± 3.3; in assay [2] (20 nM/kg i.p., 30 min), 120 ± 3.6. The blood glucose levels in assay [2] (20 nM/kg i.p., 60 min) is on record as 127 ± 3.4; in assay [2] (20 nM/kg i.p., 120 min) it was 145 ± 2.1.
Consider `CCc1cc(OC)ccc1-c1ccc(CC(NC(=O)[C@H](CC(=O)O)NC(=O)[C@H](CO)NC(=O)[C@@H](NC(=O)[C@H](Cc2ccccc2)NC(=O)[C@@H](NC(=O)CNC(=O)C(CCC#N)NC(=O)C(C)(C)NC(=O)[C@@H](N)Cc2c[nH]cn2)[C@@H](C)O)[C@@H](C)O)C(=O)NC(CCCc2ccc(F)cc2C(F)(F)F)C(N)=O)cc1` (single isomer, unassigned) [Seq. ID. 80], for which the blood glucose levels in assay [1] (0.5 μM/kg oral, 0 min) was 184 ± 2.5; in assay [1] (0.5 μM/kg oral, 30 min) it was 115 ± 3.6; in assay [1] (0.5 μM/kg oral, 60 min), 113 ± 4.2; in assay [1] (0.5 μM/kg oral, 120 min) it was 110 ± 2.4; in assay [2] (10 nM/kg i.p., 0 min) it was 183 ± 2.2; in assay [2] (10 nM/kg i.p., 30 min) it was 113 ± 2.8. Besides, the blood glucose levels in assay [2] (10 nM/kg i.p., 60 min) is recorded as 113 ± 2.9; in assay [2] (10 nM/kg i.p., 120 min), 114 ± 2.0.
`CCc1cc(OC)ccc1-c1ccc(CC(CNC(CCCc2ccccc2)C(N)=O)NC[C@H](CC(=O)O)NC(=O)[C@H](CO)NC(=O)[C@@H](NC(=O)C(C)(Cc2ccccc2F)NC(=O)[C@@H](NC(=O)CNC(=O)C(CCC#N)NC(=O)C(C)(C)NC(=O)[C@@H](N)Cc2c[nH]cn2)[C@H](C)O)[C@H](C)O)cc1` (single isomer, unassigned) [Seq. ID. 202]: the blood glucose levels in assay [1] (2 μM/kg oral, 0 min) is on record as 184 ± 2.5; in assay [1] (2 μM/kg oral, 30 min) it was 115 ± 3.6; in assay [1] (2 μM/kg oral, 60 min), 113 ± 4.2; in assay [1] (2 μM/kg oral, 120 min), 110 ± 2.4; in assay [2] (50 nM/kg i.p., 0 min), 183 ± 5.1; in assay [2] (50 nM/kg i.p., 30 min), 122 ± 3.1. The blood glucose levels in assay [2] (50 nM/kg i.p., 60 min) is recorded as 130 ± 2.3; in assay [2] (50 nM/kg i.p., 120 min), 148 ± 2.2.
In the case of `CCc1cc(OC)ccc1-c1ccc(CC(C(=O)N(C)C(CCCc2ccccc2)C(N)=O)N(C)C(=O)[C@H](CC(=O)O)N(C)C(=O)[C@H](CO)NC(=O)[C@@H](NC(=O)C(C)(Cc2ccccc2F)NC(=O)[C@@H](NC(=O)CNC(=O)C(CCC#N)NC(=O)C(C)(C)NC(=O)[C@@H](N)Cc2c[nH]cn2)[C@H](C)O)[C@H](C)O)cc1` (single isomer, unassigned) [Seq. ID. 154], the blood glucose levels in assay [1] (2 μM/kg oral, 0 min) came out at 181 ± 2.5; in assay [1] (2 μM/kg oral, 30 min), 117 ± 3.3; in assay [1] (2 μM/kg oral, 60 min), 112 ± 4.0; in assay [1] (2 μM/kg oral, 120 min), 108 ± 2.9; in assay [2] (30 nM/kg i.p., 0 min) it was 181 ± 4.1; in assay [2] (30 nM/kg i.p., 30 min), 117 ± 3.8. The blood glucose levels in assay [2] (30 nM/kg i.p., 60 min) was 117 ± 3.0; in assay [2] (30 nM/kg i.p., 120 min), 117 ± 1.6.

For the origin of these results see patent publication US8883963B2 (Cadila Healthcare Limited, priority 2007, dated 2014).
